Results published in patent US20030114512A1, “Compounds with 5-ht2 and 5-ht1a agonist activity for treating glaucoma” (priority 2002, published 2003).
Read-outs that look alike come from different tables or passages of the source.

What was measured:
[1] = biological target: T1, human cloned 5-HT1A receptors (Homo sapiens, UniProt P08908); test: 5-HT1A receptor binding assay ([3H]8-OH-DPAT); conditions: [3H]8-OH-DPAT, CHO cell membranes; read-out: IC50, nM (SEM) 5-HT1A receptor binding
T1 construct: purchased NEN (manufactured by Biosignal, Inc., Montreal, Canada); host or cells: CHO cells (membranes)
T1 sequence (P08908 1-422): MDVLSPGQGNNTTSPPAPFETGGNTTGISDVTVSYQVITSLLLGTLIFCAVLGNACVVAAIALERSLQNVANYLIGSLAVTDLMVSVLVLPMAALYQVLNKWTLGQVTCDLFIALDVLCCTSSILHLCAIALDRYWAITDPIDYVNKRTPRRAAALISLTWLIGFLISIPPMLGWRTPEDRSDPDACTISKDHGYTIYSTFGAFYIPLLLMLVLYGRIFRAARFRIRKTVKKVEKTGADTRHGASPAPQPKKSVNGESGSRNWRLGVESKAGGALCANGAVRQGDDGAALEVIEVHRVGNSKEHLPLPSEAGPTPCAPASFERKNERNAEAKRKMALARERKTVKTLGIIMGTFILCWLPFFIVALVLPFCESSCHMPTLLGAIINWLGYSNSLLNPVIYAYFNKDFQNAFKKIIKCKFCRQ
Description: 5-HT1A Receptor Binding Assay
5-HT1A binding studies were performed with human cloned receptors expressed in Chinese hamster ovary (CHO) cells using (^3H)8-OH DPAT as the ligand. Membranes from Chinese hamster ovary cells (CHO) expressing cloned 5-HT1A receptors (manufactured for NEN by Biosignal, Inc., Montreal, Canada) were homogenized in approximately 40 volumes of 50 mM Tris pH 7.4 for 5 sec. Drug dilutions were made using a Beckman Biomek 2000 robot (Beckman Instruments, Fullerton, Calif.). Incubations were conducted with membrane prep, test compounds, and 0.25 nM [^3H]8-OH-DPAT (NEN, Boston, Mass.) in the same buffer at 27° C. for 1 h. Assays were terminated by rapid vacuum filtration over Whatman GF/B glass fiber filters pre-soaked in 0.3% polyethyleneimine. Bound radioactivity was measured using liquid scintillation spectrometry. Data were analyzed using non-linear curve fitting programs (Sharif et al., J. Pharmac. Pharmacol. 51: 685-694, 1999).
Ligand binding studies can also be run using membrane preparations from calf and rat brain (local source) and human cortex membranes. Specific brain regions were dissected out, homogenized in 10 volumes of 0.32 M sucrose and centrifuged for 10 min at 700×g. The resulting supernatant was centrifuged at 43,500×g for 10 min and the pellet re-suspended in 50 mM Tris-HCl (pH 7.7, 25° C.) using a 10 sec polytron treatment. Aliquots were stored at −140° C. To remove endogenous serotonin, the preps were incubated at 37° C. for 10 min prior to the experiment. Assay incubations were terminated by rapid filtration over Whatman GF/C filters using a Brandel cell harvester. Ki values were calculated using the Cheng-Prusoff equation (De Vry et al., J. Pharm. Exper. Ther. 284:1082-1094, 1998.)

5-HT2 receptor = biological target: T2, 5-HT2 receptor (Rattus norvegicus, UniProt P14842); test: 5-HT2 functional assay: phosphoinositide (PI) turnover; assay type: cell-based; conditions: for Emax: A7r5 cells, relative to 5-HT set at 100%, read-out: Efficacy (Emax, %) 5-HT2 functional; for EC50: [3H]inositol phosphates, A7r5 rat vascular smooth muscle cells, read-out: EC50, nM (SEM) 5-HT2 functional
T2 construct: A7r5 rat vascular smooth muscle cells; endogenous in cells; host or cells: A7r5 rat vascular smooth muscle cells
T2 sequence (P14842 whole entry): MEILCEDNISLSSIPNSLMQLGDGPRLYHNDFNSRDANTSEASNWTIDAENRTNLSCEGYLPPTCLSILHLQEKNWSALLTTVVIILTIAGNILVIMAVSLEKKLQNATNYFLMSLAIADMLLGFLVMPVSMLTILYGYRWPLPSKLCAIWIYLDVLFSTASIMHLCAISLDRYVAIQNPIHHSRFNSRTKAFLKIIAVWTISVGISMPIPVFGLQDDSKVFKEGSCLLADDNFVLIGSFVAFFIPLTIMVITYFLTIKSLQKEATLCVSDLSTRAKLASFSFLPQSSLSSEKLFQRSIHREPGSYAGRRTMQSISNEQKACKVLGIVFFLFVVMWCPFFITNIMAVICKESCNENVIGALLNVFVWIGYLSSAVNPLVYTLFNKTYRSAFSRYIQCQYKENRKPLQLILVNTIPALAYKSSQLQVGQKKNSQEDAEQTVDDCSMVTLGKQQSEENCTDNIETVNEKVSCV
Description: 5-HT2 Functional Assay: Phosphoinositide (PI) Turnover Assay
The relative agonist activity of serotonergic compounds at the 5-HT2 receptor can be determined in vitro using the ability of the compounds to stimulate the production of [^3H]inositol phosphates in [^3H]myo-inositol-labeled A7r5 rat vascular smooth muscle cells by their ability to activate the enzyme phospholipase C. These cells are grown in culture plates, maintained in a humidified atmosphere of 5% CO2 and 95% air and fed semi-weekly with Dulbecco's modified Eagle medium (DMEM) containing 4.5 g/l glucose and supplemented with 2 mM glutamine, 10 μg/ml gentamicin, and 10% fetal bovine serum. For the purpose of conducting the phosphoinositide (PI) turnover experiments, the A7r5 cells are cultured in 24-well plates as previously [J. Pharmacol. Expt. Ther., 286, 411 (1998)]. Confluent cells are exposed for 24-30 hrs to 1.5 μCi [^3H]-myo-inositol (18.3 Ci/mmol) in 0.5 ml of serum-free medium. Cells are then rinsed once with DMEM/F-12 containing 10 mM LiCl prior to incubation with the test agent (or solvent as the control) in 1.0 ml of the same medium for 1 hr at 37° C., after which the medium is aspirated and 1 ml of cold 0.1 M formic acid added to stop the reaction. The chromatographic separation of [^3H]-inositol phosphates ([^3H]-IPs) on an AG-1-X8 column is performed as previously described [J. Pharmacol. Expt. Ther. 286, 411 (1998)] with sequential washes with H2O and 50 mM ammonium formate, followed by elution of the total [^3H]-IPs fraction with 1.2 M ammonium formate containing 0.1 M formic acid. The eluate (4 ml) is collected, mixed with 15 ml scintillation fluid, and the total [^3H]-IPs determined by scintillation counting on a beta counter. Concentration-response data are analyzed by the sigmoidal fit function of the Origin Scientific Graphics software (Microcal Software, Northampton, Mass.) to determine agonist potency (EC50 value) and efficacy (Emax). Serotonin (5-HT) is used as a positive control (standard) agonist compound and the efficacy of test compounds is compared to that of 5-HT (set at 100%). The concentration of the compound needed to stimulate the production of [^3H]-IPs by 50% of the maximum response is termed the EC50 value.

intraocular pressure [2] = test: IOP response in lasered (hypertensive) eyes of conscious cynomolgus monkeys; assay type: in vivo, cynomolgus monkey; conditions: 300 μg topical ocular
Description: IOP Response in Lasered (Hypertensive) Eyes of Conscious Cynomolgus Monkeys
Intraocular pressure (IOP) was determined with an Alcon Pneumatonometer after light corneal anesthesia with 0.1% proparacaine. Eyes were washed with saline after each measurement. After a baseline IOP measurement, test compound was instilled in one 30 μL aliquot to the right eyes only of nine cynomolgus monkeys. Vehicle was instilled in the right eyes of six additional animals. Subsequent IOP measurements were taken at 1, 3, and 6 hours.

intraocular pressure [3] = conditions: monkey; ascribed to α1A receptor activity; cited from earlier work
intraocular pressure [4] = conditions: rabbits; cited from earlier work

CC(N)Cn1ccc2cc(Cl)ccc21.O=C(O)/C=C/C(=O)O (centres unmarked) [1-(2-aminopropyl) 5-chloroindole fumarate]
IC50 [1]: 417 nM | Emax (5-HT2 receptor): 104% | EC50 (5-HT2 receptor): 1390 nM | Percent IOP Reduction (intraocular pressure [2]; 1 hour after dose): 1.2% | Percent IOP Reduction (intraocular pressure [2]; 3 hours after dose): 16% | Percent IOP Reduction (intraocular pressure [2]; 6 hours after dose): 20.1%

COc1ccc2ccn(CC(C)N)c2c1.O=C(O)/C=C/C(=O)O (centres unmarked) [1-(2-aminopropyl) 6-methoxyindole fumarate]
IC50 [1]: 225 nM | Emax (5-HT2 receptor): 88% | EC50 (5-HT2 receptor): 255 nM | Percent IOP Reduction (intraocular pressure [2]; 1 hour after dose): 22.5% | Percent IOP Reduction (intraocular pressure [2]; 3 hours after dose): 33.1% | Percent IOP Reduction (intraocular pressure [2]; 6 hours after dose): 27.5%

COc1ccccc1N1CCN(CCCNc2c(C)c(=O)n(C)c(=O)n2C)CC1 [5-methylurapidil]
Effect on IOP (intraocular pressure [3]): lowers IOP

CCCN(CCC)C1CCc2cccc(O)c2C1 (centres unmarked) [Compound 8-OH-DPAT, 8-hydroxydipropylaminotetralin]
Effect on IOP (intraocular pressure [4]): reduces IOP
